According to PMC4503722, “Novel Phenotypic Outcomes Identified for a Public Collection of Approved Drugs from a Publicly Accessible Panel of Assays” (PLoS ONE, 2015):
Like-named read-outs stand apart in the source and are kept apart here.

Legend:
[1] = FAERS, ref [45], cited from earlier work; for Adjusted Z-Score: Drug A with vs without methotrexate; for # of Specific AE Occurrence With Drug A With Drug B: with methotrexate; for # of Specific AE Occurrence With Drug A Without Drug B: without methotrexate
STC-1 cell line = type: cell-based, mouse; conditions: assay number 13
INS-1E cells [2] = assay: cells; type: cell-based, rat
INS-1E cells [3] = type: cell-based, rat
NCI-H716 cells = assay: cells; type: cell-based, Human; conditions: assay number 12
[4] = tested on: tonic K+ channel activity in INS-1E cells; assay: cells; type: cell-based, rat
DLD-1 = assay: cells; type: cell-based; conditions: assay number 23; basal
Colo320 = assay: cells; type: cell-based; conditions: assay number 27; basal
HeLa cells = assay: cells; type: cell-based
SW480 = assay: cells; type: cell-based; conditions: assay number 24; basal
RKO = assay: cells; type: cell-based; conditions: assay number 29; basal
HT-29 = assay: cells; type: cell-based; conditions: assay number 28; basal
SNU-C1 = assay: cells; type: cell-based; conditions: assay number 30; basal
HCT116 = assay: cells; type: cell-based; conditions: assay number 25; basal
[5] = assay number 10, 0.1 mM glucose
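Throughout, for 5mMGluc INS1E SecretionMod IC50/EC50: secreted insulin quantified by homogeneous immunoassay.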

[H]/N=C(\N/C(=N/[H])NCCCCCCNC(=N)NC(=N)Nc1ccc(Cl)cc1)Nc1ccc(Cl)cc1 [Chlorhexidine]
Adjusted Z-Score ([1]; AE OSTEONECROSIS): -2.347 | # of Specific AE Occurrence With Drug A With Drug B ([1]; AE OSTEONECROSIS): 31 | # of Specific AE Occurrence With Drug A Without Drug B ([1]; AE OSTEONECROSIS): 899

COc1cccc2c1C(=O)c1c(O)c3c(c(O)c1C2=O)C[C@@](O)(C(=O)CO)C[C@@H]3O[C@H]1C[C@H](N)[C@H](O)[C@H](C)O1 [Doxorubicin]
# of Specific AE Occurrence With Drug A With Drug B ([1]; AE BONE DISORDER): 49 | # of Specific AE Occurrence With Drug A Without Drug B ([1]; AE BONE DISORDER): 912

Clc1ccc2c(c1)CCc1cccnc1C2=C1CCNCC1 [NCGC00159325-05]
mSTC-1 GLP1 Secretion IC50/EC50 (STC-1 cell line): > 40 µM | 5mMGluc_INS1E SecretionMod IC50/EC50 (INS-1E cells [2]; assay number 8, 5 mM glucose): 7.105 µM | 0.1mMGluc_INS1E SecretionMod Act IC50/EC50 (INS-1E cells [3]; assay number 9, 0.1 mM glucose): > 33.33 µM | hNCI-H716 GLP1 Secretion IC50/EC50 (NCI-H716 cells): > 40 µM | 0.1mMGluc_INS1E FluxOR IC50/EC50 [4, 5]: > 33.3333 µM

CN(C)CCOC(c1ccccc1)c1ccc(Br)cc1 (stereo not drawn) [NCGC00249891-01]
Basal_Viability ATP DLD-1 IC50/EC50 (DLD-1): > 20 µM | 5mMGluc_INS1E SecretionMod IC50/EC50 (INS-1E cells [2]; assay number 8, 5 mM glucose): 2.767 µM | Basal_Viability ATP Colo 320 IC50/EC50 (Colo320): > 20 µM | 0.1mMGluc_INS1E SecretionMod Act IC50/EC50 (INS-1E cells [3]; assay number 9, 0.1 mM glucose): > 33.33 µM | Hela CellCycMod PI 2N IC50/EC50 (HeLa cells; assay number 14, 2N): > 10 µM | Hela CellCycMod PI S Phase IC50/EC50 (HeLa cells; assay number 15, S phase): > 10 µM | Hela CellCycMod PI 4N IC50/EC50 (HeLa cells; assay number 16, 4N): > 10 µM | Hela CellCycMod PI MI IC50/EC50 (HeLa cells; assay number 17, MI): > 10 µM | Hela CellCycMod PI Cell Number IC50/EC50 (HeLa cells; assay number 18, cell number): > 10 µM | Basal_Viability ATP SW480 IC50/EC50 (SW480): > 20 µM | Basal_Viability ATP RKO IC50/EC50 (RKO): > 20 µM | Basal_Viability ATP HT-29 IC50/EC50 (HT-29): 17.0256 µM | 0.1mMGluc_INS1E FluxOR IC50/EC50 [4, 5]: 10.9665 µM | Basal_Viability ATP SNU-C1 IC50/EC50 (SNU-C1): 3.0987 µM | Basal_Viability ATP HCT116 IC50/EC50 (HCT116): > 20 µM

CC(CC1c2ccccc2CCc2ccccc21)CN(C)C (stereo not drawn) [NCGC00274277-01]
5mMGluc_INS1E SecretionMod IC50/EC50 (INS-1E cells [2]): 3.6382 µM | 0.1mMGluc_INS1E SecretionMod Act IC50/EC50 (INS-1E cells [3]): > 33.33 µM | Hela CellCycMod PI 2N IC50/EC50 (HeLa cells): > 10 µM | Hela CellCycMod PI 4N IC50/EC50 (HeLa cells): > 10 µM | Hela CellCycMod PI Cell Number IC50/EC50 (HeLa cells): > 10 µM | Hela CellCycMod PI MI IC50/EC50 (HeLa cells): > 10 µM | Hela CellCycMod PI S Phase IC50/EC50 (HeLa cells): > 10 µM | 0.1mMGluc_INS1E FluxOR IC50/EC50 [4]: 19.9984 µM

B1: Pegfilgrastim: Drug A generic name in the FAERS table (protein, UniProt P09919 31-207, looked up)
Granulocyte …: TPLGPASSLPQSFLLKCLEQVRKIQGDGAALQEKLVSECATYKLCHPEELVLLGHSLGIPWAPLSSCPSQALQLAGCLSQLHSGLFLYQGLLQALEGISPELGPTLDTLQLDVADFATTIWQQMEELGMAPALQPTQGAMPAFASAFQRRAGGVLVASHLQSFLEVSYRVLRHLAQP
modifications: pegfilgrastim; PEG; N-terminal Met
Adjusted Z-Score ([1]; AE BONE PAIN): -2.755 | # of Specific AE Occurrence With Drug A With Drug B ([1]; AE BONE PAIN): 13 | # of Specific AE Occurrence With Drug A Without Drug B ([1]; AE BONE PAIN): 641
